Data as given in ChEMBL document CHEMBL1201862, “PubChem BioAssay data set” (2004).
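Dose response: 5 concentrations. Exposure: 48 h. Format: 96-well plates. Endpoint: linear interpolation; highest concentration if not reached. GI50 is the concentration that inhibits growth by half.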 Activity calls are given as the source filed them. No stated cut-off is given here; in the data, active = GI50 up to about 1.1 µM and inactive = higher.

Key:
Assay in all cases: inhibition of tumour cell growth, NCI panel, 48 h
786-0 = test system: 786-0
A498 = test system: A498
A549 = test system: A549
ACHN = test system: ACHN
CAKI-1 = test system: CAKI-1
CCRF-CEM = test system: CCRF-CEM
COLO 205 = test system: COLO 205
DLD-1 = test system: DLD-1
DMS-114 = test system: DMS-114
DMS-273 = test system: DMS-273
EKVX = test system: EKVX
HCC 2998 = test system: HCC 2998
HCT-116 = test system: HCT-116
HCT-15 = test system: HCT-15
HOP-18 = test system: HOP-18
HOP-62 = test system: HOP-62
HOP-92 = test system: HOP-92
HT-29 = test system: HT-29
IGROV-1 = test system: IGROV-1
K562 = test system: K562
KM-20L2 = test system: KM-20L2
KM12 = test system: KM12
LOX IMVI = test system: LOX IMVI
M14 = test system: M14
M19-MEL = test system: M19-MEL
MOLT-4 = test system: MOLT-4
Malme-3M = test system: Malme-3M
NCI-H226 = test system: NCI-H226
NCI-H23 = test system: NCI-H23
NCI-H460 = test system: NCI-H460
OVCAR-3 = test system: OVCAR-3
OVCAR-4 = test system: OVCAR-4
OVCAR-5 = test system: OVCAR-5
OVCAR-8 = test system: OVCAR-8
RPMI-8226 = test system: RPMI-8226
SF-268 = test system: SF-268
SF-295 = test system: SF-295
SF-539 = test system: SF-539
SK-MEL-28 = test system: SK-MEL-28
SK-MEL-2 = test system: SK-MEL-2
SK-MEL-5 = test system: SK-MEL-5
SK-OV-3 = test system: SK-OV-3
SN12C = test system: SN12C
SNB-19 = test system: SNB-19
SNB-75 = test system: SNB-75
SNB-78 = test system: SNB-78
SW-620 = test system: SW-620
TK-10 = test system: TK-10
U-251 = test system: U-251
UACC-257 = test system: UACC-257
UACC-62 = test system: UACC-62
UO-31 = test system: UO-31
XF498 = test system: XF498
HL-60 = test system: HL-60
LXFL 529 = test system: LXFL 529
NCI-H522 = test system: NCI-H522
RXF 393 = test system: RXF 393
SR = test system: SR

O=c1[nH]nc2ccccc2c1Cc1ccccc1
GI50 (786-0): > 100 µM (inactive)
GI50 (A498): > 100 µM (inactive)
GI50 (A549): > 100 µM (inactive)
GI50 (ACHN): > 100 µM (inactive)
GI50 (CAKI-1): > 100 µM (inactive)
GI50 (CCRF-CEM): > 100 µM (inactive)
GI50 (COLO 205): > 100 µM (inactive)
GI50 (DLD-1): > 100 µM (inactive)
GI50 (DMS-114): > 100 µM (inactive)
GI50 (DMS-273): > 100 µM (inactive)
GI50 (EKVX): > 100 µM (inactive)
GI50 (HCC 2998): 59.3 µM (inactive)
GI50 (HCT-116): > 100 µM (inactive)
GI50 (HCT-15): > 100 µM
GI50 (HOP-18): > 100 µM (inactive)
GI50 (HOP-62): > 100 µM (inactive)
GI50 (HOP-92): > 100 µM (inactive)
GI50 (HT-29): > 100 µM (inactive)
GI50 (IGROV-1): > 100 µM (inactive)
GI50 (K562): > 100 µM (inactive)
GI50 (KM-20L2): > 100 µM (inactive)
GI50 (KM12): > 100 µM (inactive)
GI50 (LOX IMVI): > 100 µM (inactive)
GI50 (M14): > 100 µM (inactive)
GI50 (M19-MEL): > 100 µM (inactive)
GI50 (MOLT-4): > 100 µM (inactive)
GI50 (Malme-3M): > 100 µM (inactive)
GI50 (NCI-H226): > 100 µM (inactive)
GI50 (NCI-H23): > 100 µM (inactive)
GI50 (NCI-H460): > 100 µM (inactive)
GI50 (OVCAR-3): > 100 µM (inactive)
GI50 (OVCAR-4): > 100 µM (inactive)
GI50 (OVCAR-5): > 100 µM (inactive)
GI50 (OVCAR-8): > 100 µM (inactive)
GI50 (RPMI-8226): > 100 µM (inactive)
GI50 (SF-268): > 100 µM (inactive)
GI50 (SF-295): > 100 µM (inactive)
GI50 (SF-539): > 100 µM (inactive)
GI50 (SK-MEL-28): > 100 µM (inactive)
GI50 (SK-MEL-2): > 100 µM (inactive)
GI50 (SK-MEL-5): > 100 µM (inactive)
GI50 (SK-OV-3): > 100 µM (inactive)
GI50 (SN12C): > 100 µM (inactive)
GI50 (SNB-19): > 100 µM (inactive)
GI50 (SNB-75): 96.6 µM (inactive)
GI50 (SNB-78): > 100 µM (inactive)
GI50 (SW-620): > 100 µM (inactive)
GI50 (TK-10): > 100 µM (inactive)
GI50 (U-251): > 100 µM (inactive)
GI50 (UACC-257): > 100 µM (inactive)
GI50 (UACC-62): > 100 µM (inactive)
GI50 (UO-31): > 100 µM (inactive)
GI50 (XF498): > 100 µM (inactive)

O=C(Nc1nc2ncn(CCO)c2c(=O)[nH]1)c1ccccc1
GI50 (786-0): > 100 µM (inactive)
GI50 (A498): > 100 µM (inactive)
GI50 (A549): > 100 µM (inactive)
GI50 (ACHN): > 100 µM (inactive)
GI50 (CAKI-1): > 100 µM (inactive)
GI50 (CCRF-CEM): > 100 µM (inactive)
GI50 (COLO 205): > 100 µM (inactive)
GI50 (DLD-1): > 100 µM (inactive)
GI50 (DMS-114): > 100 µM (inactive)
GI50 (DMS-273): > 100 µM (inactive)
GI50 (EKVX): > 100 µM (inactive)
GI50 (HCT-116): > 100 µM (inactive)
GI50 (HCT-15): > 100 µM
GI50 (HL-60): > 100 µM (inactive)
GI50 (HOP-18): > 100 µM (inactive)
GI50 (HOP-62): > 100 µM (inactive)
GI50 (HOP-92): > 100 µM (inactive)
GI50 (HT-29): > 100 µM (inactive)
GI50 (IGROV-1): > 100 µM (inactive)
GI50 (K562): > 100 µM (inactive)
GI50 (KM-20L2): > 100 µM (inactive)
GI50 (KM12): > 100 µM (inactive)
GI50 (LOX IMVI): > 100 µM (inactive)
GI50 (LXFL 529): > 100 µM (inactive)
GI50 (M14): > 100 µM (inactive)
GI50 (M19-MEL): > 100 µM (inactive)
GI50 (Malme-3M): > 100 µM (inactive)
GI50 (NCI-H226): > 100 µM (inactive)
GI50 (NCI-H460): > 100 µM (inactive)
GI50 (NCI-H522): > 100 µM (inactive)
GI50 (OVCAR-3): > 100 µM (inactive)
GI50 (OVCAR-4): > 100 µM (inactive)
GI50 (OVCAR-5): > 100 µM (inactive)
GI50 (OVCAR-8): > 100 µM (inactive)
GI50 (RPMI-8226): > 100 µM (inactive)
GI50 (RXF 393): > 100 µM (inactive)
GI50 (SF-268): > 100 µM (inactive)
GI50 (SF-295): > 100 µM (inactive)
GI50 (SF-539): > 100 µM (inactive)
GI50 (SK-MEL-28): > 100 µM (inactive)
GI50 (SK-MEL-2): > 100 µM (inactive)
GI50 (SK-MEL-5): > 100 µM (inactive)
GI50 (SK-OV-3): > 100 µM (inactive)
GI50 (SN12C): > 100 µM (inactive)
GI50 (SNB-19): > 100 µM (inactive)
GI50 (SNB-75): > 100 µM (inactive)
GI50 (SNB-78): > 100 µM (inactive)
GI50 (SR): > 100 µM (inactive)
GI50 (SW-620): > 100 µM (inactive)
GI50 (TK-10): > 100 µM (inactive)
GI50 (U-251): > 100 µM (inactive)
GI50 (UACC-257): > 100 µM (inactive)
GI50 (UACC-62): > 100 µM (inactive)
GI50 (UO-31): > 100 µM (inactive)

Nc1ccn(C2(CO)C=C(CO)C(O)C2O)c(=O)n1 (configuration not stated)
GI50 (786-0): > 25.8 µM (inactive)
GI50 (A498): > 25.8 µM (inactive)
GI50 (A549): > 25.8 µM (inactive)
GI50 (ACHN): > 25.8 µM (inactive)
GI50 (CAKI-1): > 25.8 µM (inactive)
GI50 (COLO 205): > 25.8 µM (inactive)
GI50 (DLD-1): > 25.8 µM (inactive)
GI50 (DMS-114): > 25.8 µM (inactive)
GI50 (DMS-273): > 25.8 µM (inactive)
GI50 (EKVX): > 25.8 µM (inactive)
GI50 (HCC 2998): > 25.8 µM (inactive)
GI50 (HCT-116): > 25.8 µM (inactive)
GI50 (HCT-15): > 25.8 µM
GI50 (HL-60): > 25.8 µM (inactive)
GI50 (HOP-18): > 25.8 µM (inactive)
GI50 (HOP-62): > 25.8 µM (inactive)
GI50 (IGROV-1): > 25.8 µM (inactive)
GI50 (K562): > 25.8 µM (inactive)
GI50 (KM-20L2): > 25.8 µM (inactive)
GI50 (KM12): > 25.8 µM (inactive)
GI50 (LXFL 529): > 25.8 µM (inactive)
GI50 (M14): > 25.8 µM (inactive)
GI50 (M19-MEL): > 25.8 µM (inactive)
GI50 (MOLT-4): > 25.8 µM (inactive)
GI50 (Malme-3M): > 25.8 µM (inactive)
GI50 (NCI-H226): > 25.8 µM (inactive)
GI50 (NCI-H460): > 25.8 µM (inactive)
GI50 (NCI-H522): > 25.8 µM (inactive)
GI50 (OVCAR-3): > 25.8 µM (inactive)
GI50 (OVCAR-4): > 25.8 µM (inactive)
GI50 (OVCAR-8): > 25.8 µM (inactive)
GI50 (RPMI-8226): > 25.8 µM (inactive)
GI50 (RXF 393): > 25.8 µM (inactive)
GI50 (SF-268): > 25.8 µM (inactive)
GI50 (SF-539): > 25.8 µM (inactive)
GI50 (SK-MEL-28): > 25.8 µM (inactive)
GI50 (SK-MEL-2): > 25.8 µM (inactive)
GI50 (SK-MEL-5): > 25.8 µM (inactive)
GI50 (SK-OV-3): > 25.8 µM (inactive)
GI50 (SN12C): > 25.8 µM (inactive)
GI50 (SNB-19): > 25.8 µM (inactive)
GI50 (SNB-75): > 25.8 µM (inactive)
GI50 (SNB-78): > 25.8 µM (inactive)
GI50 (SR): > 25.8 µM (inactive)
GI50 (SW-620): > 25.8 µM (inactive)
GI50 (TK-10): > 25.8 µM (inactive)
GI50 (U-251): > 25.8 µM (inactive)
GI50 (UACC-257): > 25.8 µM (inactive)
GI50 (UACC-62): > 25.8 µM (inactive)
GI50 (UO-31): > 25.8 µM (inactive)
